Data on three compounds can be found in ChEMBL document CHEMBL1201862, “PubChem BioAssay data set” (2004).

A word on the IC50: it is the concentration that inhibits the measured activity by half.

Activity calls are given as the source filed them. Cut-off read from the data, not from the text of the source: actives have a measured IC50 and inactives only a lower limit.

Envelope glycoprotein gp160, sequence (Q6QLK5 whole entry, the tested form may be a part): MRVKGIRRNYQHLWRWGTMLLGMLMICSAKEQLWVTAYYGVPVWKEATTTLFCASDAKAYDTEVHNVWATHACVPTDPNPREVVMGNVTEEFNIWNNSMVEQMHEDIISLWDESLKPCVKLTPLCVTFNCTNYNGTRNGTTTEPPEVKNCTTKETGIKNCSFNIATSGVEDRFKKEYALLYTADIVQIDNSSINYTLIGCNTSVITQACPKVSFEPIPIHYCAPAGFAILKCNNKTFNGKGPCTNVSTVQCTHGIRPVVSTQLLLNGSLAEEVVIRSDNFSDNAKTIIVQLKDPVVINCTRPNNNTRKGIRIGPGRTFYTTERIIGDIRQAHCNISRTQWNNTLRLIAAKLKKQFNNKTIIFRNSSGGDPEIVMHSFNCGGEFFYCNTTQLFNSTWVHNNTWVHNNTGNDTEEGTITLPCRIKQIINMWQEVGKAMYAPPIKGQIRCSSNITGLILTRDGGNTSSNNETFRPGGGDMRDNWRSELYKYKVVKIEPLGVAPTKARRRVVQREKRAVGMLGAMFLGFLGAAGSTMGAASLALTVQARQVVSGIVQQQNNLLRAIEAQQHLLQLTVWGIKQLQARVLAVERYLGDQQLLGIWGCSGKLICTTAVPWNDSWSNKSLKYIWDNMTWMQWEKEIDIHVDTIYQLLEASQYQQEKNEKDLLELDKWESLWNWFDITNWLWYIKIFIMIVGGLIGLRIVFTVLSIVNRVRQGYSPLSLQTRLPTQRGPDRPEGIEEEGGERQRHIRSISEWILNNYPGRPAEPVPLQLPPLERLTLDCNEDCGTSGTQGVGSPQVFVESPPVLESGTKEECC

The experiment has as its target Envelope glycoprotein gp160 (Human immunodeficiency virus 1, UniProt Q6QLK5). The experiment is described as follows: inhibitors of HIV fusion peptide binding, primary screen, biochemical, uHTS, fluorescence dequenching (AID 1986).
As for `CCOc1cc(/C=N/Nc2cccc(C(=O)O)c2)ccc1OC(=O)c1ccccc1`, the half-maximal inhibitory concentration (IC50) was 23.4 µM (active). Consider `O=C(O)c1ccc(N/N=C/c2ccc(-c3cccc(Cl)c3)o2)cc1`, for which the half-inhibitory concentration (IC50) is 22.2 µM (active).

`CCc1nnc(NS(=O)(=O)c2ccc(NC(=S)NC(=O)/C=C/c3ccc(C(C)C)cc3)cc2)s1`: the half-inhibitory concentration (IC50) is 12.1 µM (active).
